Data on four molecules can be found in paper PMC6717862 (Drug Design, Development and Therapy, 2019).

The target of one experiment is EGFR (Homo sapiens, UniProt P00533). As to the kind of experiment: In vitro enzymatic activity assay. As to conditions: read-out: EGFR inhibition%, inhibition percentage at 1.0 μM. The experiment is classed as biochemical.
For experiment [1] the following is noted: hypoxia vs normoxia; cited from earlier work.

EGFR, sequence (P00533 25-1210): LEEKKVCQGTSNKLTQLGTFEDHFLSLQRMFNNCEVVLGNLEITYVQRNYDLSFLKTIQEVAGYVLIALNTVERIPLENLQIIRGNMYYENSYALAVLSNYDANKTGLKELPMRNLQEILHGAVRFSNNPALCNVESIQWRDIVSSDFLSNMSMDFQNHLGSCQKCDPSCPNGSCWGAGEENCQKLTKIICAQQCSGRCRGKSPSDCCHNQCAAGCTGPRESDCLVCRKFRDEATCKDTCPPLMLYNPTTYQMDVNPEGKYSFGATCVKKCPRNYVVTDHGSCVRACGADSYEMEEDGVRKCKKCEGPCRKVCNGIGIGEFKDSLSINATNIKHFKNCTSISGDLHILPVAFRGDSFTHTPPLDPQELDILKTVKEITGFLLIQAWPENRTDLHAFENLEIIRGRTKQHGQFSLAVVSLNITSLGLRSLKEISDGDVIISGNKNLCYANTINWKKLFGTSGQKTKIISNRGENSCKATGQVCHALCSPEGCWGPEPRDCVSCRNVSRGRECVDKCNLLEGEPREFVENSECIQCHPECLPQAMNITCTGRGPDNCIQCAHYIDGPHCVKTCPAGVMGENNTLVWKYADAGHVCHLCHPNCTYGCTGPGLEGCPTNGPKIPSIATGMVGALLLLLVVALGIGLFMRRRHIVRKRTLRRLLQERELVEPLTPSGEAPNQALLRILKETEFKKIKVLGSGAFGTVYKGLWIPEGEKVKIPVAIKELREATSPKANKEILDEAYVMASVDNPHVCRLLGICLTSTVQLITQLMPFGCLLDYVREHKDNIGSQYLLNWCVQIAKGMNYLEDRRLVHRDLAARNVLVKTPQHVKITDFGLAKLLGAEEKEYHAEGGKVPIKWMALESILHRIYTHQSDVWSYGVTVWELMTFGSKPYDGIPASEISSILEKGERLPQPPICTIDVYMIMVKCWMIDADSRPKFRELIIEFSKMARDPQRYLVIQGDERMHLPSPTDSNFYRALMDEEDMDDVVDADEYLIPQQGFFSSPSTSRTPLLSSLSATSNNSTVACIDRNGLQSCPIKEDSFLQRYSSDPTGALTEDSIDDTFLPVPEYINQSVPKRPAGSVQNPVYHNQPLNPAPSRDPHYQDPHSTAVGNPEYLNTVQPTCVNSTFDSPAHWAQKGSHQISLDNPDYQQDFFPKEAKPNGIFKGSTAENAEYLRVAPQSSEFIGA

Regarding `COc1cc2c(Nc3ccc(OCCn4ccnc4[N+](=O)[O-])cc3)ncnc2cc1OCCCN1CCOCC1` [Compound 16d, 6-Methoxy-7-(3-morpholinopropoxy)-N-(4-(2-(2-nitro-1H-imidazol-1-yl)ethoxy)phenyl)quinazolin-4-amine], at EGFR, the inhibition at 1 µM was less than 50%. On the same count and under the same terms, under `COCCOc1cc2ncnc(Nc3ccc(OCCn4ccnc4[N+](=O)[O-])cc3)c2cc1OCCOC` [Compound 16h, 6,7-Bis(2-methoxyethoxy)-N-(4-(2-(2-nitro-1H-imidazol-1-yl)ethoxy)phenyl)quinazolin-4-amine] stands less than 50%; under `COc1cc2ncnc(Nc3ccc(OCCn4ccnc4[N+](=O)[O-])cc3)c2cc1OCCCN1CCOCC1` [Compound 16l, 7-Methoxy-6-(3-morpholinopropoxy)-N-(4-(2-(2-nitro-1H-imidazol-1-yl)ethoxy)phenyl)quinazolin-4-amine], less than 50%.

Regarding `Cn1c(COP(=O)(NCCBr)NCCBr)cnc1[N+](=O)[O-]` [TH-302], the “fold more effective in carcinoma hypoxia than in normoxia” value in experiment [1] is listed as 270 fold.

The inhibition is the relative decrease from the control value, in per cent.
